Assay results published in BindingDB's records for patent US9707233 (Incyte Holdings Corporation, 2017).

Biological target: T1, Phosphatidylinositol 4,5-bisphosphate 3-kinase catalytic subunit delta isoform (Homo sapiens, UniProt O00329)
T1 sequence (O00329 whole entry): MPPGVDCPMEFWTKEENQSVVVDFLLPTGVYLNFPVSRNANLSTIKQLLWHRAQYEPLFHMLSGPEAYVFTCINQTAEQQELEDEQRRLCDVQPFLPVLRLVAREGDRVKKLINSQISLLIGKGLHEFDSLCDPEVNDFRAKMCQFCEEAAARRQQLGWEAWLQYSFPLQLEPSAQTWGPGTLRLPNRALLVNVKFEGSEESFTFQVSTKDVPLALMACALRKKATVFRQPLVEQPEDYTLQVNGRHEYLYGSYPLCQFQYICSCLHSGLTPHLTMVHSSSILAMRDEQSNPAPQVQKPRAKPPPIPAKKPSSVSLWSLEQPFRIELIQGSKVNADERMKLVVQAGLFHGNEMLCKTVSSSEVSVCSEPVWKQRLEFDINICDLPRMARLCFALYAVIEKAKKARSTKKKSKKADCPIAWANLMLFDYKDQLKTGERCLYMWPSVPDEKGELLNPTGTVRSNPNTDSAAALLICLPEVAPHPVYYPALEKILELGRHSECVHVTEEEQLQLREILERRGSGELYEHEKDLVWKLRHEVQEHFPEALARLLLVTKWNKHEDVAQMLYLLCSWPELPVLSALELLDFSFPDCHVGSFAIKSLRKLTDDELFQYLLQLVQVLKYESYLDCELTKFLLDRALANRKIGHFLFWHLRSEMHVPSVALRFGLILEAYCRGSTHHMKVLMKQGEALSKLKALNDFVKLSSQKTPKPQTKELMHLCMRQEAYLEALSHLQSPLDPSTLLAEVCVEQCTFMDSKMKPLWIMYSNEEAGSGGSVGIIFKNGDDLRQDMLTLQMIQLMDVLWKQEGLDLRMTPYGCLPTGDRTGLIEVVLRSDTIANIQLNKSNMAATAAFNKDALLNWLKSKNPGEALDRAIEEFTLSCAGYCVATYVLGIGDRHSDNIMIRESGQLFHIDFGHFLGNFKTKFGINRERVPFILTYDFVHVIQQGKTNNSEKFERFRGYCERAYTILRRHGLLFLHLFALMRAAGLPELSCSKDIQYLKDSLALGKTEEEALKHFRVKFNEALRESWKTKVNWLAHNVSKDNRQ
Experiment: A2 PI3Kdelta Scintillation Proximity Assay
Conditions: pH 6.7; 25 °C
Procedure: PI3K isoforms α, β, δ and γ are purchased from Millipore (Bedford, Mass.). […] Inhibitors are first diluted serially in DMSO and added to the plate wells before the addition of other reaction components. The final concentration of DMSO in the assay is 0.5%. The PI3K assays are carried out at room temperature in 20 mM MOPS, pH 6.7, 10 mM MgCl2, 5 mM DTT and CHAPS 0.03%. The reaction mixture is prepared containing 50 μM PIP2, kinase and varying concentration of inhibitors. […] Reactions are incubated for 180 minutes and terminated by the addition of 100 μL of 1 M potassium phosphate pH 8.0, 30 mM EDTA quench buffer. A 100 μL aliquot of the reaction solution are then transferred to 96-well Millipore MultiScreen IP 0.45 μm PVDF filter plate (The filter plate is prewetted with 200 μL 100% ethanol, distilled water, and 1 M potassium phosphate pH 8.0, respectively). […] After drying by aspiration and blotting, the plate is air dried in an incubator at 37° C. overnight. Packard TopCount adapter (Millipore) is then attached to the plate followed with addition of 120 μL Microscint 20 scintillation cocktail (Perkin Elmer) in each well. After the plate sealing, the radioactivity of the product is determined by scintillation counting on Topcount (Perkin-Elmer). […]

Row | IC50 [nM] | SMILES
1 | < 10 | COc1c(C(C)n2nc(C)c3c(N)ncnc32)cc(Cl)c(C)c1C1CN(CC(F)F)C1 (single isomer, unassigned) [US9707233, 112]
2 | < 10 | CCOc1c(C(C)n2nc(C)c3c(N)ncnc32)cc(Cl)c(C#N)c1C1CN(C(C)(C)C(=O)N(C)C)C1 (single isomer, unassigned) [US9707233, 241]
